The text below walks through data of patent US20050143472A1, “Novel treatment for pathologies associated with oxidative damage” (priority 2002, published 2005).

Read-outs that look alike come from different tables or passages of the source.

Assay [1] has as its target T1, mPAO (Mus musculus, UniProt Q8C0L6).
T1 construct: the full length cDNA of mpao was released by Nde I and Hind III treatment, and ligated into Nde I and Hind III sites of pET29c; made in house; host or cells: E. coli BL21 GOLD (DE3), plasmid pET-MPAO (pET29c)
Put plainly: Oxygraph assay of O2 consumption, progress-curve analysis. In kind it is biochemical, murine. On the procedure:
Some assays (oxygraph assays) were carried out by directly monitoring O2 consumption in air-saturated buffer ([O2]=0.237 mM) or buffer saturated with pure O2 at 30° C. ([O2]=1.12 mM). The depletion of O2 was detected with a Yellow Springs Instruments, Inc. Model 53 Oxygen Monitor equipped with a Clark electrode. […] Following a published procedure (Goudar et al., Biochim. Biophys. Acta 1429:377-383 [1999]), the data were fitted to the integrated Mechaelis-Menton equation. The analyses were done using Maple VI (Windows 2000) software (Waterloo Maple, Inc.) running on a PC computer. […] Inhibition by the H2O2, formed as a product of polyamine oxidation by mPAO, was assessed by addition of 2 μL of a 30 mg/mL (30,000 units/mg) solution of catalase, after [O2] reached zero.
The catalase immediately converted each mole of H2O2 to 0.5 mol of O2 (since [O2]=1.12 mM for pure O2-saturated buffer, then [O2]=0.56 mM immediately after catalase addition). In the presence of catalase, O2 depletion should occur at 0.5× the rate as it does in the absence of catalase (unless H2O2 inhibition is operating). With catalase present, each molecule of O2 will be converted eventually to H2O (4-electron equivalents), rather than to H2O2 (2-electron equivalents).

Assay [2] concerns OVCAR-3 human ovarian carcinoma cells. As to conditions: approximately 50 μM, within 20 hrs. The source says:
(§1) In this Example, the method used to examine hpao mRNA production by cultured cells undergoing apoptosis is described.

In assay [3] the target is T1, mPAO. Description: Steady-state kinetic spectrophotometric assay of mPAO (H2O2 formation). The format is biochemical, murine. On the procedure: In this example the methods used to examine mPAO steady state kinetics are described. Spectrophotometric assays were done at 30° C. in a potassium phosphate buffer (e.g., 50 mM KH2PO4/KOH buffer, pH 7.6 saturated in air or in pure oxygen), using a published procedure which provides a continuous monitor of the H2O2 produced (Holt et al., Anal. Biochem. 244:384-392 [1997]). These assays were done in 1 mL cuvette with 0.8 mL of solution containing varying amounts of substrate, 1 mM vanillic acid, 0.5 mM 4-aminopyrine, 4 units of horseradish peroxidase, and 0.1-0.2 μg of mPAO. The reactions were monitored at 498 nm with a UVIKON 840 spectrophotometer (KONTRON Instruments) for the formation of the quinoneimine dye (ε498=4,650 M^−1cm^−1 at pH 7.6), the condensation product of vanillic acid and oxidized 4-aminopyrine. The latter is produced from 4-aminopyrine by the action of horseradish peroxidase that has been oxidized by H2O2 (Holt et al., supra [1997]). The assays were done at 25° C. by varying the concentration of the amine substrate, while the oxygen concentration in the assay solution was constant at the air-saturating level of 237 μM. The data were fit, by nonlinear regression to steady-state kinetic equations (McIntire et al., Biochem. J. 228:325-335 [1985]), which provided the values, and standard deviations thereof, for kcat′, KS′ and kcat′/KS′ (=Q, the specificity constant). [formula]
The dissociation constants, KD, for these and other amines were estimated in the following manner. It was assumed that the competition was competitive, since in the presence of the inhibitors, at a saturating N^1-acetyl-Spm concentration, the rate of the reaction was equal to the value of the true kcat. It was also assumed that the mechanism is of the ping-pong type. Thus, the applicable steady-state equation is (Segal, Enzyme Kinetics, John Wiley & Sons, New York, pp. 606-625 [1975]): [formula]
On the left, kcat and KS are the steady-state parameters for N^1-acetyl-Spm (S), and I and KI (=KD), represent the inhibitor and its inhibition constant, respectively. KIO and KO are the inhibition constant and Michaelis constant for O2, respectively. The equation can be converted to the expression on the right side when: [formula]
The expressions for kcat′ and KS′ (at the fixed [O2]=[…]) are the same as those when the inhibitor is absent. Since the values of kcat′ and KS″ were predetermined, inhibition assays were carried out where [S]≈KS″, which, in the absence of I, would give a rate, ν≈0.5×kcat″. In these assay, for each inhibitor, [I] was adjusted so the apparent rate was somewhat less then 0.5 kcat′. In this situation, after substitution and rearrangement, Equation 1 reduces to: [formula]
Since [I] and kcat′ are known, and ν is the measured rate in the presence of the inhibitor, the value of KI′ can be estimated. It is assumed that these apparent KI′ are good approximations of the true KI (=KD) values. […] The estimated KI′ values provided in Table 1, are the averages of these four values. If the reactions of the polyamine substrates and O2 with mPAO obeys a ping-pong type mechanism, the apparent values, kcat′/KS′, are equal to the true kcat/KS values.

The subject of a further assay is hpao mRNA. On the procedure:
In addition, a reverse-transcriptase-PCR (RT-PCR) experiment was performed to analyze the expression of hpao in OVCAR-3 and HL-60 cells. Briefly, about 10^6 to 10^7 cells were harvested and the total RNA of each sample was isolated by using the RNeasy miniprep kit (QIAGEN). A 1 μg mRNA sample was used for cDNA synthesis with the MMLV reverse transcriptase following the manufacturer's instructions provided with the Advantage RT-for-PCR Kit (Clontech). Human liver and placenta polyA mRNA were also obtained from Clontech. cDNA amplification was achieved following the SMART RACE™ cDNA Amplification method (Clontech). A pair of gene specific primers was generated based on the hpao cDNA sequence; hpao1 was the sense primer 5′-[…] ACCTTTC-3′ (SEQ ID NO:17), and hpao2R was the antisense primer 5′-[…] AGT-3′ (SEQ ID NO:18). Positive control amplimers for human G3PDH (glyceraldehyde-3-phosphate-dehydrogenase) were also used; the sense primer was 5′-[…] G-3′ (SEQ ID NO:19) and the antisense primer was 5′-[…] CT-3′ (SEQ ID NO:20). PCR was performed at 94° C. for 3 min, 25 cycles at 94° C. for 10 sec, 68° C. for 1 min, and 72° C. for 1 min.
as §1

T1 sequence (Q8C0L6 whole entry E184K/L285S/R416L/R417S/Q419R/E451A/V490I/S491G/V497A): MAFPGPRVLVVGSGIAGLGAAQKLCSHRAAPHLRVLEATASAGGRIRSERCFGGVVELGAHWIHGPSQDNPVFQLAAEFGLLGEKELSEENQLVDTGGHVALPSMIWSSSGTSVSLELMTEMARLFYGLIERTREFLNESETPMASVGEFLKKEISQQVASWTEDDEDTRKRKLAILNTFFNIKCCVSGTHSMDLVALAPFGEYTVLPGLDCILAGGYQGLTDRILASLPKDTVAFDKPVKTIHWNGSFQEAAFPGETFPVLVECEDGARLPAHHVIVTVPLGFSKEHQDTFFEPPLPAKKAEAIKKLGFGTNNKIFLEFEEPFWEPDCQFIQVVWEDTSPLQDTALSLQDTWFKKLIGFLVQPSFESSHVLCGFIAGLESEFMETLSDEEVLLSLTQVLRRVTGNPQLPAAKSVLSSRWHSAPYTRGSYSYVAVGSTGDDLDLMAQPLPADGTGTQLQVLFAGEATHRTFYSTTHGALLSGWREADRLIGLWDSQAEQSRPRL

`CC(=O)NCCCNCCCCNCCCN` [N^1-acetyl-Spm, N^1-acetyl-spermine] showed a KQ at mPAO [1] (Michaelis constant for O2, saturating amine substrate) of 180 ± 20 µM. Also, the kcat/KQ result on mPAO [1] (for O2, saturating amine substrate, pure O2-saturated buffer) is “(4.4 ± 0.4) × 10^4 M^−1sec−^1”. Moreover, the “KS(calc)” value on mPAO [1] (true KS calculated from apparent KS′ with KS = KS′(1 + KO/[O2])) was 3.1 ± 0.3 µM. In addition, the kcat at mPAO [1] (true value, saturating substrate (3.7 mM), buffer saturated with pure O2 (1.12 mM)) was determined as 8.0 ± 0.8 s⁻¹. Also, in assay [2], the OVCAR-3 cells killed came out at 100%. For the same compound, the “kcat′” value on mPAO [3] (apparent value, air-saturated 50 mM KH2PO4/KOH buffer pH 7.6, [O2] 237 μM) is 4.53 ± 0.05 s⁻¹. In addition, at mPAO [3] (apparent value, air-saturated buffer pH 7.6, [O2] 237 μM), the “KS′” value turned out to be 1.78 ± 0.1 µM. The “substrate for mPAO (oxidation by mPAO)” value on mPAO [3] (in words) is reported as “good mPAO substrates”. The “kcat′/KS′” value on mPAO [3] (specificity constant, air-saturated buffer pH 7.6) was “(2.54 ± 0.01) × 10^6 M^−1sec^−1”. Also, the “hpao mRNA level” value was “no change” in the assay with hpao mRNA (HL-60 cells, 48 hr exposure to high concentrations) and “significant levels of hpao mRNA were induced” with hpao mRNA (OVCAR-3 cells, very quickly after exposure).
